Data published in patent publication US20260337212A1, “IP4-4,6 SUBSTITUTED DERIVATIVE COMPOUNDS FOR USE IN THE TREATMENT, INHIBITION OF PROGRESSION, AND PREVENTION OF ECTOPIC CALCIFICATION” (SANIFIT THERAPEUTICS, S.A., priority 2022, published 2026).
Structures can show the parent of a compound that is named as a salt.

Test: In vitro inhibition of calcium phosphate crystallization in human plasma (spectrophotometric)
Type: biochemical
Conditions: 0-100 μM, 1.5 mM phosphate, 12.5 mM calcium, pH 7.4, 30 min, rt, read-out: Relative Potency (EC50, inhibition of calcium phosphate crystallization)
Experimental: The in vitro efficacy of the IP4-4,6 substituted derivatives (e.g., Compounds 1 to 53) of the invention on the inhibition of calcium phosphate crystallization in human plasma samples was evaluated according to a spectrophotometric assay previously described in the art (Ferrer M, et al., Sci Rep 2017; 7:6858, doi:10.1038/s41598-017-07203-x).
A 96-well plate was employed. Plasma was spiked (1 volume of the IP4-4,6 substituted derivatives of the invention per 19 volumes of plasma) with increasing concentrations of the derivatives in the range of 0-100 μM. Plasma was then centrifuged at 10,000 g at rt and subsequently mixed with a mixture of 5 mM hydrogen phosphate and 41.67 mM calcium to attain final concentrations of 1.5 mM phosphate and 12.5 mM calcium, respectively. All reagent solutions were filtered, and pH adjusted to 7.4.
Crystallization of calcium phosphate was monitored spectrophotometrically for 30 min at rt by measuring the increments in absorbance at 550 nm using the Biotek Powerwave XS Microplate spectrophotometer (BioTek Instruments, Inc., Winooski, VT, US). The plate was incubated at rt in an orbital shaker and absorbance measured every 3 min.
Plasma crystallization was assessed based on slope measurement in the linear range between 6 and 24 min from plots of increase in absorbance versus logarithm of time. The efficacy of different myo-inositol phosphates derivatives in preventing in vitro formation of calcium phosphate crystals was assessed in human plasma samples using the slopes obtained between 6- and 24-min. Inhibition of crystallization was measured by comparing the slopes of the control sample (blank plasma) with those of samples containing the inhibitor as shown below: […]

Molecule | EC50 [µM]
4,6-O-dipropyl-myo-inositol-1,2,3,5-tetrakis(phosphate) octasodium salt [Compound 4] | ≤ 5
COCCCCCCCCCOC1C(OP(=O)(O)O)C(OCCCCCCCCCOC)C(OP(=O)(O)O)C(OP(=O)(O)O)C1OP(=O)(O)O (stereo not drawn) [Compound 12, 4,6-O-bis(9-methoxynonyl)-myo-inositol-1,2,3,5-tetrakis(phosphate) octasodium salt] | > 10
COCCCCCCCOC1C(OP(=O)(O)O)C(OCCCCCCCOC)C(OP(=O)(O)O)C(OP(=O)(O)O)C1OP(=O)(O)O (stereo not drawn) [Compound 11, 4,6-O-bis(7-methoxyheptyl)-myo-inositol-1,2,3,5-tetrakis(phosphate) octasodium salt] | > 10
NCCCCCO[C@@H]1[C@@H](OP(=O)(O)O)[C@H](OCCCCCN)[C@@H](OP(=O)(O)O)[C@@H](OP(=O)(O)O)[C@H]1OP(=O)(O)O [Compound 14, 4,6-O-bis(5-aminopentyl)-myo-inositol-1,2,3,5-tetrakis(phosphate) octasodium salt] | ≤ 5
4,6-O-bis(3-((methoxycarbonyl)amino)propyl)-myo-inositol-1,2,3,5-tetrakis(phosphate) octasodium salt [Compound 24] | > 10
NCCCCCCCCCCO[C@@H]1[C@@H](OP(=O)(O)O)[C@H](OCCCCCCCCCCN)[C@@H](OP(=O)(O)O)[C@@H](OP(=O)(O)O)[C@H]1OP(=O)(O)O [Compound 15, 4,6-O-bis(10-aminodecyl)-myo-inositol-1,2,3,5-tetrakis(phosphate) octasodium salt] | > 10
NCCCOC1C(OP(=O)(O)O)C(OCCCN)C(OP(=O)(O)O)C(OP(=O)(O)O)C1OP(=O)(O)O (stereo not drawn) [Compound 13, 4,6-O-bis(3-aminopropyl)-myo-inositol-1,2,3,5-tetrakis(phosphate) octasodium salt] | 5 to 10
4,6-O-bis(10-carboxydecyl)-myo-inositol-1,2,3,5-tetrakis(phosphate) decasodium salt [Compound 19] | > 10

The remaining lines, values ahead:

EC50 [µM] | Molecule
> 10 | O=P(O)(O)OC1C(OCCCc2cccc(C(F)(F)F)c2)C(OP(=O)(O)O)C(OP(=O)(O)O)C(OP(=O)(O)O)C1OCCCc1cccc(C(F)(F)F)c1 (stereo not drawn) [Compound 44, 4,6-O-bis(3-(3-(trifluoromethyl)phenyl)propyl)-myo-inositol-1,2,3,5-tetrakis(phosphate) octasodium salt]
≤ 5 | O=P(O)(O)OC1C(OCCC2CC2)C(OP(=O)(O)O)C(OP(=O)(O)O)C(OP(=O)(O)O)C1OCCC1CC1 (stereo not drawn) [Compound 28, 4,6-O-bis(2-cyclopropylethyl)-myo-inositol-1,2,3,5-tetrakis(phosphate) octasodium salt]
> 10 | CCCCCOC1C(OP(O)(O)=S)C(OCCCCC)C(OP(O)(O)=S)C(OP(O)(O)=S)C1OP(O)(O)=S (stereo not drawn) [Compound 50, 4,6-O-dipentyl-myo-inositol-1,2,3,5-tetrakis(thiophosphate) octasodium salt]
≤ 5 | 4,6-O-bis(4-amino-4-oxobutyl)-myo-inositol-1,2,3,5-tetrakis(phosphate) octasodium salt [Compound 26]
≤ 5 | O=C(NCCCOC1C(OP(=O)(O)O)C(OCCCNC(=O)NC2CCCC2)C(OP(=O)(O)O)C(OP(=O)(O)O)C1OP(=O)(O)O)NC1CCCC1 (stereo not drawn) [Compound 47, 4,6-O-bis(3-(3-cyclopentylureido)propyl)-myo-inositol-1,2,3,5-tetrakis(phosphate) octasodium salt]
≤ 5 | 4,6-O-bis(5-(4-(methoxymethyl)-1H-1,2,3-triazol-1-yl) pentyl)-myo-inositol-1,2,3,5-tetrakis(phosphate) octasodium salt [Compound 38]
5 to 10 | 4,6-O-bis(3-(3-phenylureido)propyl)-myo-inositol-1,2,3,5-tetrakis(phosphate) octasodium salt [Compound 46]
